Bulk density and flow characteristics data for 1 molecule are collected here from US20250041305A1, “PHARMACEUTICAL COMPOSITION OF SEPIAPTERIN” (PTC Therapeutics, Inc., priority 2021, published 2025).

The nature of this data set: Roller compaction processability observation and in-process data. Particulars: unformulated. The source says:
Formulations were manufactured at 100 g scale by roller compaction using the compositions as described in Table 17. The formulations were designed to evaluate the effect of formulation variables including drug loading, ratios of diluents and levels of other excipients on the processability, as shown in Table 17.
In the tables above, BD refers to Bulk Density, DT refers to Disintegration time, HR refers to Hausner ratio and TD refers to tapped density. Disintegration time is for a 0.5-inch ribbon. The plus signs in the table refer to the following observed characteristics: “+” is soft, “++” is medium hard, “+++” is hard, and “++++” is very hard.
To improve the flow properties of the sepiapterin composition of the invention, a dry granulation approach was selected. The manufacturing process included preblending, roller compaction followed by milling, final blending, and sachet filling. The batch analyses data from the selected manufacturing process yielded acceptable drug product within the specification limit. […]

Take `C[C@H](O)C(=O)C1=Nc2c(nc(N)[nH]c2=O)NC1` [sepiapterin]: the bulk density result is “low bulk density” and the flow characteristics entry was “poor flow characteristics”.
